Tests used:
[1] = Crystal
[2] = Molar enthalpy of transition or fusion; conditions: Crystal
[3] = molar heat capacity at constant pressure; conditions: 101.33 kPa

CCCCCCCCCC(=O)OC [methyl decanoate]
Conditions | Molar enthalpy of transition or fusion [kcal/mol] | Triple point temperature [K]
[1] | – | 260.33
[2] | 8.58 | –

[3]
Conditions | molar heat capacity at constant pressure [J/K/mol]
5 K, Crystal | 0.45
10 K, Crystal | 3.7
20 K, Crystal | 20.01
30 K, Crystal | 37.87
40 K, Crystal | 57.28
50 K, Crystal | 75.63
60 K, Crystal | 91.46
70 K, Crystal | 105.95
80 K, Crystal | 119.09
90 K, Crystal | 131.08
100 K, Crystal | 141.62
110 K, Crystal | 151.65
120 K, Crystal | 160.63
130 K, Crystal | 169.23
140 K, Crystal | 177.35
150 K, Crystal | 185.25
160 K, Crystal | 192.99
170 K, Crystal | 200.77
180 K, Crystal | 209.01
190 K, Crystal | 217.44
200 K, Crystal | 226.26
210 K, Crystal | 234.91
220 K, Crystal | 245.06
230 K, Crystal | 256.05
240 K, Crystal | 269.17
250 K, Crystal | 300.63
270 K, Liquid | 361.09
280 K, Liquid | 368.72
290 K, Liquid | 372.12
300 K, Liquid | 376.14
310 K, Liquid | 380.31
320 K, Liquid | 385.19
330 K, Liquid | 389.78
340 K, Liquid | 394.95
350 K, Liquid | 400.2

CCCCCCCCCCCC(=O)OC [methyl dodecanoate]
Conditions | Molar enthalpy of transition or fusion [kcal/mol] | Triple point temperature [K]
[1] | – | 278.18
[2] | 10.3 | –

[3]
Conditions | molar heat capacity at constant pressure [J/K/mol]
5 K, Crystal | 0.5
10 K, Crystal | 4.31
20 K, Crystal | 19.62
30 K, Crystal | 40.21
40 K, Crystal | 63.08
50 K, Crystal | 85.07
60 K, Crystal | 103.02
70 K, Crystal | 119.02
80 K, Crystal | 134.57
90 K, Crystal | 148.81
100 K, Crystal | 160.46
110 K, Crystal | 171.83
120 K, Crystal | 181.94
130 K, Crystal | 191.82
140 K, Crystal | 201.16
150 K, Crystal | 209.76
160 K, Crystal | 218.85
170 K, Crystal | 227.97
180 K, Crystal | 237.26
190 K, Crystal | 246.66
200 K, Crystal | 256.21
210 K, Crystal | 265.84
220 K, Crystal | 277.21
230 K, Crystal | 288.57
240 K, Crystal | 299.95
250 K, Crystal | 315.69
260 K, Crystal | 335.52
270 K, Crystal | 392.98
280 K, Liquid | 428
290 K, Liquid | 432.76
300 K, Liquid | 438.82
310 K, Liquid | 443.32
320 K, Liquid | 448.38
330 K, Liquid | 453.83
340 K, Liquid | 460.08
350 K, Liquid | 467.86

CCCCCCCCCCCCCCCCCCCC(=O)OC [methyl eicosanoate]
Conditions | Molar enthalpy of transition or fusion [kcal/mol] | Triple point temperature [K]
[1] | – | 319.48
[2] | 18.83 | –

[3]
Conditions | molar heat capacity at constant pressure [J/K/mol]
5 K, Crystal | 0.75
10 K, Crystal | 5.46
20 K, Crystal | 28.85
30 K, Crystal | 56.97
40 K, Crystal | 89.89
50 K, Crystal | 122.31
60 K, Crystal | 149.98
70 K, Crystal | 176.8
80 K, Crystal | 199.8
90 K, Crystal | 220.14
100 K, Crystal | 235.76
110 K, Crystal | 255.12
120 K, Crystal | 271.01
130 K, Crystal | 285.48
140 K, Crystal | 299.45
150 K, Crystal | 313.11
160 K, Crystal | 326.52
170 K, Crystal | 339.86
180 K, Crystal | 353.31
190 K, Crystal | 366.99
200 K, Crystal | 381.11
210 K, Crystal | 395.71
220 K, Crystal | 411.05
230 K, Crystal | 427.04
240 K, Crystal | 443.77
250 K, Crystal | 461.58
260 K, Crystal | 480.5
270 K, Crystal | 501.55
280 K, Crystal | 525.09
290 K, Crystal | 551.06
300 K, Crystal | 585.33
330 K, Liquid | 714.47
340 K, Liquid | 722.28
350 K, Liquid | 732.2

CCCCCCCCCCCCCCCCC(=O)OC [methyl heptadecanoate]
Conditions | Molar enthalpy of transition or fusion [kcal/mol] | Triple point temperature [K]
[1] | – | 303.09
[2] | 15.27 | –

[3]
Conditions | molar heat capacity at constant pressure [J/K/mol]
5 K, Crystal | 0.56
10 K, Crystal | 4.36
20 K, Crystal | 23.27
30 K, Crystal | 48.82
40 K, Crystal | 77.97
50 K, Crystal | 106.88
60 K, Crystal | 131.71
70 K, Crystal | 154.68
80 K, Crystal | 175.53
90 K, Crystal | 192.9
100 K, Crystal | 208.51
110 K, Crystal | 224.09
120 K, Crystal | 238.4
130 K, Crystal | 252.69
140 K, Crystal | 265.74
150 K, Crystal | 275.72
160 K, Crystal | 284.57
170 K, Crystal | 302.09
180 K, Crystal | 313.76
190 K, Crystal | 326.38
200 K, Crystal | 340.04
210 K, Crystal | 355.66
220 K, Crystal | 367.89
230 K, Crystal | 382.88
240 K, Crystal | 399.49
250 K, Crystal | 418.37
260 K, Crystal | 438.62
270 K, Crystal | 456.93
280 K, Crystal | 480.24
290 K, Crystal | 517.76
310 K, Liquid | 599.17
320 K, Liquid | 605.44
330 K, Liquid | 609.25
340 K, Liquid | 615.4
350 K, Liquid | 622.81

From the NIST ThermoML archive (doi:10.1021/je0499364)
